Laboratory results reported in PubChem BioAssay AID1963841 (Molecular Pharmacology Branch, DTP, NCI, 2024).

Test system: 439559-082-T-J2-PDC spheroid viability
Assay: Anticancer human tumor 439559-082-T-J2-PDC patient-derived colon adenocarcinoma cell line growth inhibition [POLQ]
Details: spheroids with HUVEC and MSC; for IC50: curve of first compound; for viability, T/C: stronger effect = lower value
Procedure, shortened: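 PDC + HUVEC + MSC complex spheroids; POLQ inhibitors ± partner drugs; top conc. at/near clinical Cmax, else 10 microM (SN-38 1 microM), half-log dilutions; 37 degrees C, 5% CO2.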

[1] = second compound 0.0316 µM, first compound 0.0316 µM
[2] = second compound 0.0316 µM, first compound 0.1 µM
[3] = second compound 0.0316 µM, first compound 0.316 µM
[4] = second compound 0.0316 µM, first compound 1 µM
[5] = second compound 0.0316 µM, first compound 3.16 µM
[6] = second compound 0.0316 µM, first compound 10 µM
[7] = second compound 0.1 µM, first compound 0.0316 µM
[8] = second compound 0.1 µM, first compound 0.1 µM
[9] = second compound 0.1 µM, first compound 0.316 µM
[10] = second compound 0.1 µM, first compound 1 µM
[11] = second compound 0.1 µM, first compound 3.16 µM
[12] = second compound 0.1 µM, first compound 10 µM
[13] = second compound 0.316 µM, first compound 0.0316 µM
[14] = second compound 0.316 µM, first compound 0.1 µM
[15] = second compound 0.316 µM, first compound 0.316 µM
[16] = second compound 0.316 µM, first compound 1 µM
[17] = second compound 0.316 µM, first compound 3.16 µM
[18] = second compound 0.316 µM, first compound 10 µM
[19] = second compound 1 µM, first compound 0.0316 µM
[20] = second compound 1 µM, first compound 0.1 µM
[21] = second compound 1 µM, first compound 0.316 µM
[22] = second compound 1 µM, first compound 1 µM
[23] = second compound 1 µM, first compound 3.16 µM
[24] = second compound 1 µM, first compound 10 µM
[25] = second compound 3.16 µM, first compound 0.0316 µM
[26] = second compound 3.16 µM, first compound 0.1 µM
[27] = second compound 3.16 µM, first compound 0.316 µM
[28] = second compound 3.16 µM, first compound 1 µM
[29] = second compound 3.16 µM, first compound 3.16 µM
[30] = second compound 3.16 µM, first compound 10 µM
[31] = second compound 10 µM, first compound 0.0316 µM
[32] = second compound 10 µM, first compound 0.1 µM
[33] = second compound 10 µM, first compound 0.316 µM
[34] = second compound 10 µM, first compound 1 µM
[35] = second compound 10 µM, first compound 3.16 µM
[36] = second compound 10 µM, first compound 10 µM
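Note: spheroids exposed to compounds for seven days before readout.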
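Throughout, for viability, T/C: 100% = DMSO vehicle control viability.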

CCc1cc2c(N3CCc4c(cc(Cn5ccnc5)cc4-c4cn(C)nc4C(F)(F)F)C3=O)cc(C)nc2c(OC)n1 + Nc1ccc(C#CCN(C(=O)Cc2ncc(C(F)(F)F)cc2C(F)(F)F)c2ccc(F)cc2)nn1
IC50 (second compound 0.0316 µM): > 10 µM
IC50 (second compound 0.1 µM): > 10 µM
IC50 (second compound 0.316 µM): > 10 µM
IC50 (second compound 1 µM): > 10 µM
IC50 (second compound 3.16 µM): > 10 µM
IC50 (second compound 10 µM): > 10 µM
viability, T/C [1]: 97%
viability, T/C [2]: 96.8%
viability, T/C [3]: 95.3%
viability, T/C [4]: 93.2%
viability, T/C [5]: 98.2%
viability, T/C [6]: 92.7%
viability, T/C [7]: 108%
viability, T/C [8]: 87.9%
viability, T/C [9]: 89.7%
viability, T/C [10]: 95.9%
viability, T/C [11]: 91.9%
viability, T/C [12]: 96.2%
viability, T/C [13]: 102%
viability, T/C [14]: 92.2%
viability, T/C [15]: 95.7%
viability, T/C [16]: 96%
viability, T/C [17]: 96.1%
viability, T/C [18]: 86.5%
viability, T/C [19]: 94.5%
viability, T/C [20]: 95%
viability, T/C [21]: 89.3%
viability, T/C [22]: 85.3%
viability, T/C [23]: 104%
viability, T/C [24]: 88.6%
viability, T/C [25]: 101%
viability, T/C [26]: 93.3%
viability, T/C [27]: 85.9%
viability, T/C [28]: 86.3%
viability, T/C [29]: 92.6%
viability, T/C [30]: 86.3%
viability, T/C [31]: 98.5%
viability, T/C [32]: 95.3%
viability, T/C [33]: 80.4%
viability, T/C [34]: 96%
viability, T/C [35]: 89.1%
viability, T/C [36]: 86.8%

CCc1cc2c(N3CCc4c(cc(Cn5ccnc5)cc4-c4cn(C)nc4C(F)(F)F)C3=O)ccnc2c(OC)n1 + Nc1ccc(C#CCN(C(=O)Cc2ncc(C(F)(F)F)cc2C(F)(F)F)c2ccc(F)cc2)nn1
IC50 (second compound 0.0316 µM): > 10 µM
IC50 (second compound 0.1 µM): > 10 µM
IC50 (second compound 0.316 µM): > 10 µM
IC50 (second compound 1 µM): > 10 µM
IC50 (second compound 3.16 µM): > 10 µM
IC50 (second compound 10 µM): > 10 µM
viability, T/C [1]: 98%
viability, T/C [2]: 94.8%
viability, T/C [3]: 93.3%
viability, T/C [4]: 89.9%
viability, T/C [5]: 83%
viability, T/C [6]: 84%
viability, T/C [7]: 90.6%
viability, T/C [8]: 101%
viability, T/C [9]: 86%
viability, T/C [10]: 86.2%
viability, T/C [11]: 96.5%
viability, T/C [12]: 95.6%
viability, T/C [13]: 102%
viability, T/C [14]: 105%
viability, T/C [15]: 86.5%
viability, T/C [16]: 97.2%
viability, T/C [17]: 93.7%
viability, T/C [18]: 86.9%
viability, T/C [19]: 88.7%
viability, T/C [20]: 95.8%
viability, T/C [21]: 86.5%
viability, T/C [22]: 88.5%
viability, T/C [23]: 95.1%
viability, T/C [24]: 80.5%
viability, T/C [25]: 104%
viability, T/C [26]: 102%
viability, T/C [27]: 95%
viability, T/C [28]: 82.7%
viability, T/C [29]: 88.8%
viability, T/C [30]: 78.7%
viability, T/C [31]: 98.9%
viability, T/C [32]: 91.8%
viability, T/C [33]: 92.2%
viability, T/C [34]: 93.9%
viability, T/C [35]: 91.7%
viability, T/C [36]: 84.7%

COc1cc2cc(C(=O)CCC(=O)O)sc2cc1OC + Nc1ccc(C#CCN(C(=O)Cc2ncc(C(F)(F)F)cc2C(F)(F)F)c2ccc(F)cc2)nn1
IC50 (second compound 0.0316 µM): > 10 µM
IC50 (second compound 0.1 µM): > 10 µM
IC50 (second compound 0.316 µM): > 10 µM
IC50 (second compound 1 µM): > 10 µM
IC50 (second compound 3.16 µM): > 10 µM
IC50 (second compound 10 µM): > 10 µM
viability, T/C [1]: 99.2%
viability, T/C [2]: 99.3%
viability, T/C [3]: 96.7%
viability, T/C [4]: 95.8%
viability, T/C [5]: 105%
viability, T/C [6]: 97.5%
viability, T/C [7]: 95%
viability, T/C [8]: 107%
viability, T/C [9]: 93.1%
viability, T/C [10]: 99.2%
viability, T/C [11]: 93%
viability, T/C [12]: 98.7%
viability, T/C [13]: 94.5%
viability, T/C [14]: 101%
viability, T/C [15]: 97.4%
viability, T/C [16]: 93.4%
viability, T/C [17]: 98.1%
viability, T/C [18]: 91.8%
viability, T/C [19]: 96.2%
viability, T/C [20]: 103%
viability, T/C [21]: 90.3%
viability, T/C [22]: 93.6%
viability, T/C [23]: 99.3%
viability, T/C [24]: 88.4%
viability, T/C [25]: 90.5%
viability, T/C [26]: 88.8%
viability, T/C [27]: 98.6%
viability, T/C [28]: 91.3%
viability, T/C [29]: 97%
viability, T/C [30]: 102%
viability, T/C [31]: 107%
viability, T/C [32]: 101%
viability, T/C [33]: 98.2%
viability, T/C [34]: 98.8%
viability, T/C [35]: 96.4%
viability, T/C [36]: 82.6%
